Patent US5376679A, “Bicyclic or tricyclic biocidal compounds” (Shell Internationale Research Maatschappij B.V., priority 1988, dated 1994)
≈ marks a conversion by molar mass, not a printed value.

Assays:
Plasmopara viticola = test: Direct protectant activity against vine downy mildew (Pvp); assay type: in vivo; set-up: Pvp: direct protectant activity against vine downy mildew: scale not given here; settings: foliar spray, 1 kg/ha; activity grade 1 or 2, not defined
Excerpt: (a) Direct Protectant Activity Against Vine Downy Mildew (Plasmopara viticola; Pvp)
The test is a direct protectant one, using a foliar spray. The lower surfaces of leaves of whole vine plants (cv Cabernet Sauvignon) are sprayed with a solution of active material in 1:1 v/v water/acetone containing 0.04% w "Triton X-155" (trade mark) (octylphenol polyoxyethylene surfactant), at a dosage of 1 kilogram of active material per hectare using a track sprayer which delivers 620 liters/ha, and after a subsequent 24 hours under normal glasshouse conditions the lower surfaces of the leaves are inoculated by spraying with an aqueous solution containing 10^4 zoosporangia/ml. The inoculated plants are kept for 24 hours in a high humidity compartment, 5 days under normal glasshouse conditions and then returned for a further 24 hours to high humidity. Assessment is based on the percentage of leaf area covered by sporulation compared with that on control leaves.

Leptosphaeria nodorum = test: Direct antisporulant activity against wheat leafspot (Ln); assay type: in vivo; set-up: scale not given here; settings: foliar spray, 1 kg/ha; activity grade 1 or 2, not defined
Procedure: (e) Activity Against Wheat Leafspot (Leptosphaeria nodorum; Ln) The test is a direct antisporulant one, using a foliar spray. Leaves of wheat plants ([…]), at the single leaf stage, are inoculated by spraying with an aqueous suspension containing 8×10^5 spores/mi. The inoculated plants are kept for 24 hours in a high humidity compartment prior to treatment. […] After drying, the plants are kept for 5 days under normal glasshouse conditions, followed by assessment. Assessment is based on the percentage of leaf area covered by sporulation compared with that on leaves of control plants.

[1] = test system: Pseudocercosporella herpotrichoides; test: In vitro activity against wheat eyespot (Ph); assay type: cell-based; set-up: Ph: activity against wheat eyespot: scale not given here; settings: in vitro, 100 ppm in agar, 11 days; activity grade 1 or 2, not defined
Procedure: (c) Activity Against Wheat Eyespot (Pseudocercosporella herpotrichoides; Ph)
The test is an in vitro one. Samples are prepared wherein 0.7 mls solution containing 2 mg active material dissolved in acetone is evenly dispersed in 20 ml molten half-strength potato dextrose agar (formed by dissolving 2 g potato extract, 10 g dextrose and 7.5 g agar in 1 liter of water and sterilising for 15 minutes and 121° C.) and the resulting 20 ml portions are allowed to set in 9 cm petri dishes. The concentration of active material in the resulting samples is 100 ppm. Upon setting, two plugs of 5 mm diameter taken from the advancing edge of a stock plate of a 3 to 4 week old culture of P.herpotrichoides on full strength potato dextrose agar, incubated at 20°-22° C. in darkness, are placed, equally spaced on the surface of each sample, mycelial side uppermost. The samples are incubated for 11 days at 20°-22° C. in darkness before assessment. Diametric growth is measured with the width of the plug subtracted and results compared with growth on a sample wherein 0.7 ml acetone containing no active material is dispersed in 20 ml half-strength potato agar.

Puccinia Recondita = test: Direct protectant activity against wheat brown rust (Pr); assay type: in vivo; set-up: scale not given here; settings: foliar spray, 1 kg/ha, 10 days; activity grade 1 or 2, not defined
Procedure: (i) Activity Against Wheat Brown Rust (Puccinia Recondita; Pr) The test is a direct protectant one using a foliar spray. […] The plants are then sprayed with the test compound at a dosage of 1 kg/ha using a track sprayer as described under (a). Test compounds are applied as solutions or suspensions in a mixture of acetone and water (50:50 v/v) containing 0.04% surfactant ("TWEEN 20"--Trade Mark). 18-24 hours after treatment, the seedlings are inoculated by spraying the plants from all sides with an aqueous spore suspension containing about 10^5 spores/ml. For 18 hours after inoculation, the plants are kept in high humidity conditions at a temperature of 20°-22° C. Thereafter, the plants are kept in ambient glasshouse conditions, that is, in moderate relative humidity and at a temperature of 20° C. The disease is assessed 10 days after inoculation on the basis of the percentage of the plant covered by sporulating pustules compared with that on the control plants.

Fusarium culmorum = test: Activity against seedling wheat blight, soil drench (Fs); assay type: in vivo; set-up: scale not given here; settings: 10 kg/ha, 21 days, activity grade 1 or 2, not defined
Procedure: (d) Activity Against Seedling Wheat Blight (Fusarium culmorum; Fs)
The test is an anti-sporulant one using a soil drench. Surface sterilised wheat seeds (var Waggoner) are inoculated by soaking in an aqueous suspension containing 7×10^5 spores/ml (60 mg seed per 80 ml suspension) at 22° C. for 6 hours. The seeds are then sown in pots (5 per pot) in sand at a depth of 1 cm. 1 day after inoculation and planting the active material is applied at a rate of 10 kg/ha by pouring on a soil drench (concentration 0.36 g/l active material in 12% v/v acetone/water) evenly over the sand. The pots are then transferred to a glasshouse, kept at 25° C. and watered sparingly. 21 days after inoculation the resulting seedlings are removed from the pots and their roots are gently washed. Visual assessment is made based on lesion development on stem base and upper roots in comparison with control seedlings.

[2] = test system: Erysiphe graminis f.sp. hordei; test: Direct antisporulant activity against barley powdery mildew (Eg); assay type: in vivo; set-up: scale not given here; settings: foliar spray, 1 kg/ha; activity grade 1 or 2, not defined
Excerpt: (f) Activity Against Barley Powdery Mildew (Erysiphe graminis f.sp. hordei; Eg) The test is a direct antisporulant one, using a foliar spray. Leaves of barley seedlings, cultivar Golden Promise, are inoculated by dusting with mildew conidia one day prior to treatment with the test compound. The inoculated plants are kept overnight at glasshouse ambient temperature and humidity prior to treatment. […] After drying, plants are returned to a compartment at ambient temperature and humidity for up to 7 days, followed by assessment. Assessment is based on the percentage of leaf area covered by sporulation compared with that on leaves of control plants.

Chaetomium globosum = test: Minimum inhibitory concentration, Chaetomium globosum (Chg); assay type: cell-based; settings: *only tested at 100 ppm
Procedure: (§1) Inocula of the fungi Aspergillus niger, Cladosporium resinae and Chaetomium globosum were prepared containing 5×10^5 conidia/ml in a potato dextrose broth. The potato dextrose broth was prepared by suspending 4 g potato extract and 20 g dextrose in 1 liter of distilled water, warming to achieve solution, separating into aliquots and sterilising by autoclaving at 121° C. for 15 minutes.
(§2) Test procedures were as follows:
(§3) (ii) Dilution Series for Other Test Bacteria, Yeast and Filamentous Fungi
(§4) Dilution series from the stock solution of each compound were prepared in sterile distilled water. These contained 50, 100, 500 and 1000 ppm compound. To duplicate wells of a compartmentalised square petri dish 0.3 ml of each test compound concentration was added together with 2.7 ml of one of the microbial inocula described above. This gave final concentrations of the test compound of 5, 10, 50 and 100 ppm.
(§5) After incubation, in the dark, at 30° C. the wells were examined for the presence or absence of growth. Bacterial and yeast cultures were examined after 24 hours and 72 hours incubation and the fungi cultures after 3, 7 and 10 days.
(§6) By means of the above tests minimum inhibitory concentrations were determined for the various test compounds.

Escherichia coli = test: Minimum inhibitory concentration, Escherichia coli (Ec); assay type: cell-based, Escherichia coli (NCIB 9517); settings: 30° C., 24 and 72 hours
Procedure: (§7) In respect of S. aureus, B. subtilis and E. coli, the microorganisms were cultured in 50 ml aliquots of a tryptone soya broth in 250 ml conical flasks at 30° C. on a rotary shaker at 200 rpm for 24 hours. Tryptone soya broth was prepared by adding 17 g pancreatic digest of casein, 3 g […] digest of soyabean meal, 5 g of sodium chloride, 2.5 g of dipotassium hydrogen phosphate and 2.5 g of dextrose to 1 liter of distilled water, mixing and sterilising by autoclaving at 121° C. for 15 minutes. 1 ml aliquots of the resulting cultures were mixed with 99 ml of fresh tryptone soya broth and used as inocula for tests. […] Test procedures were as follows: (ii) Dilution Series for Other Test Bacteria, Yeast and Filamentous Fungi Dilution series from the stock solution of each compound were prepared in sterile distilled water. These contained 50, 100, 500 and 1000 ppm compound. To duplicate wells of a compartmentalised square petri dish 0.3 ml of each test compound concentration was added together with 2.7 ml of one of the microbial inocula described above. […] After incubation, in the dark, at 30° C. the wells were examined for the presence or absence of growth. Bacterial and yeast cultures were examined after 24 hours and 72 hours incubation and the fungi cultures after 3, 7 and 10 days. By means of the above tests minimum inhibitory concentrations were determined for the various test compounds.

Desulfovibrio sp. = test: Minimum inhibitory concentration, sulphate-reducing bacteria (Dsp); assay type: cell-based; settings: 30° C., 2, 5 and 10 days
Procedure: The sulphate reducing bacteria Desulfovibrio sp. were cultured in a modified Postgate's Medium B for 48 hours at 30° C. and used directly as an inoculum. The modified Postgate's Medium B consisted of 0.5 g dipotassium hydrogen phosphate, 1 g ammonium chloride, 1 g sodium sulphate, 5 g sodium lactate, 1 g yeast extract, 0.1 ml thioglycolic acid, 0.1 ml ascorbic acid, 0.5 g ferrous sulphate heptahydrate, 750 ml aged seawater and 250 ml distilled water, pH adjusted to 7.8, divided into aliquots and sterilised by autoclaving at 121° C. for 15 minutes. […] Test procedures were as follows: (i) Suphate-reducing Bacteria Test Dilution Series Duplicate aliquots (9.9 ml) of dilution series from the stock solutions of each compound were prepared in a modified Postgate's Medium B described above. These contained 100 ppm compound. These were then inoculated with 0.1 ml of inoculum. After incubation at 30° C., the presence or absence of growth--as indicated by a blackening of the medium due to ferrous sulphide production--was recorded at 2, 5 and 10 days. […] By means of the above tests minimum inhibitory concentrations were determined for the various test compounds.

Staphylococcus aureus = test: Minimum inhibitory concentration, Staphylococcus aureus (Sa); assay type: cell-based, Staphylococcus aureus (NCIB 6571); settings: 30° C., 24 and 72 hours
Procedure: as §7

Aspergillus niger = test: Minimum inhibitory concentration, Aspergillus niger (An); assay type: cell-based, Aspergillus niger (CMI 17454); settings: 30° C., 3, 7 and 10 days
Procedure: as §1, §2, §3, §4, §5, §6

Cladosporium resinae = test: Minimum inhibitory concentration, Cladosporium resinae (Cr); assay type: cell-based; settings: Amorphotheca resinae, 30° C., 3, 7 and 10 days
Procedure: as §1, §2, §3, §4, §5, §6

Saccharomyces cerevisiae = test: Minimum inhibitory concentration, yeast (Sc); assay type: cell-based, Saccharomyces cerevisiae (ATCC 9763); settings: 30° C., 24 and 72 hours
Procedure: Inocula of S. cerevisiae were prepared as for S. aureus, B. subtilis and E. coli, but using yeast malt broth in place of the typtone soya broth. The yeast malt broth was prepared by suspending 3 g yeast extract, 3 g malt extract, 5 g peptone and 10 g dextrose in 1 liter of distilled water, warming to achieve solution and sterilising by autoclaving at 121° C. for 15 minutes.
as §2, §3, §4, §5, §6

Bacillus subtilis = test: Minimum inhibitory concentration, Bacillus subtilis (Bs); assay type: cell-based; settings: 30° C., 24 and 72 hours
Procedure: as §7

Alternaria Solani = test: Direct protectant activity against tomato early blight (As); assay type: in vivo; set-up: As: activity against tomato early blight: scale not given here; settings: foliar spray as under (a), 8 days; activity grade 1 or 2, not defined; also: dose 1000 g/ha
Procedure: (g) Activity Against Tomato Early Blight (Alternaria Solani; As). The test is a direct protectant one using a foliar spray. The upper surfaces of leaves of young tomato plants are sprayed with a solution of active material as described in (a) above. After 24 hours under normal glasshouse conditions, the upper surfaces of the leaves are inoculated by spraying with an aqueous suspension containing 10^4 spores/ml. The inoculated plants are kept for 72 hours in a high humidity compartment and are then removed to lower humidity (50-70% relative humidity). Assessment is made 8 days after inoculation.

Botrytis cinerea = test: Direct protectant activity against vine grey mould (Bcp); assay type: in vivo; settings: foliar spray, 1 kg/ha; activity grade 1 or 2, not defined
Excerpt: (b) Direct Protectant Activity Against Vine Grey Mould (Botrytis cinerea; Bcp) The test is a direct protectant one using a foliar spray and is effected as described under (a), with the difference that the leaves are inoculated by spraying with an aqueous solution containing 10^5 conidia/ml.

Row | Compound | Pvp: direct protectant activity against vine downy mildew (Plasmopara viticola) | Ln: activity against wheat leafspot (Leptosphaeria nodorum) | Ph: activity against wheat eyespot [1] | Pr: activity against wheat brown rust (Puccinia Recondita) | Fs: activity against seedling wheat blight (Fusarium culmorum) | Eg: activity against barley powdery mildew [2] | MIC (Chaetomium globosum) [µg/mL] | MIC (Escherichia coli) [µg/mL] | MIC (Desulfovibrio sp.) [µg/mL] | MIC (Staphylococcus aureus) [µg/mL] | MIC (Aspergillus niger) [µg/mL] | MIC (Cladosporium resinae) [µg/mL] | MIC (Saccharomyces cerevisiae) [µg/mL] | MIC (Bacillus subtilis) [µg/mL] | As: activity against tomato early blight (Alternaria Solani) | Bcp: direct protectant activity against vine grey mould (Botrytis cinerea)
1 | Cc1cc2c(c([N+]([O-])=NC#N)c1)OC(C)(C)C2 [Example 7] | 2 | 1 | 1 | 2 | 1 | – | – | – | – | – | – | – | – | – | – | –
2 | CCC1Cc2cccc([N+]([O-])=NC#N)c2O1 (centres unmarked) [Example 8] | – | 1 | 2 | – | 2 | 1 | < 100 | > 100 | > 100 | > 100 | 10 (≈ 46 µM) | 10 (≈ 46 µM) | 100 (≈ 460 µM) | > 100 | – | –
3 | CCc1cc2cccc([N+]([O-])=NC#N)c2o1 [Example 19] | – | – | 1 | 2 | 1 | 1 | – | – | – | – | – | – | – | – | 2 | –
4 | CCCCc1cc2cccc([N+]([O-])=NC#N)c2o1 [Example 20] | – | 1 | – | 1 | 2 | – | – | > 100 | > 100 | > 100 | 100 (≈ 411 µM) | 100 (≈ 411 µM) | > 100 | > 100 | – | –
5 | N#CN=[N+]([O-])c1cccc2cc(-c3ccccc3)oc12 [Example 21] | – | – | – | – | – | – | – | – | – | – | – | – | – | – | – | 1
6 | N#CN=[N+]([O-])c1ccc2oc3c(c2c1)CCCC3 [Example 24] | 2 | – | 1 | 1 | 1 | – | – | – | – | – | – | – | – | – | 2 | –
7 | COC(=O)N=[N+]([O-])c1cc(C)cc2c1OC(C)C2 (centres unmarked) [Example 45] | 1 | – | – | – | – | 2 | – | – | – | – | – | – | – | – | 1 | –
